# From article PMC3862409 (International Journal for Parasitology, Drugs and Drug …, 2013)
# Changes are numbered by the printed parent chain. Entries after “also recorded” stand apart in the source; their conditions may differ.
# Columns and labels:
# [1] = target: T1, T. brucei hexokinase 1 (TbHK1), WT (Trypanosoma brucei brucei, UniProt Q38C42); experiment: Coupled hexokinase assay; assay type: biochemical
# T1 sequence (Q38C42 1-471): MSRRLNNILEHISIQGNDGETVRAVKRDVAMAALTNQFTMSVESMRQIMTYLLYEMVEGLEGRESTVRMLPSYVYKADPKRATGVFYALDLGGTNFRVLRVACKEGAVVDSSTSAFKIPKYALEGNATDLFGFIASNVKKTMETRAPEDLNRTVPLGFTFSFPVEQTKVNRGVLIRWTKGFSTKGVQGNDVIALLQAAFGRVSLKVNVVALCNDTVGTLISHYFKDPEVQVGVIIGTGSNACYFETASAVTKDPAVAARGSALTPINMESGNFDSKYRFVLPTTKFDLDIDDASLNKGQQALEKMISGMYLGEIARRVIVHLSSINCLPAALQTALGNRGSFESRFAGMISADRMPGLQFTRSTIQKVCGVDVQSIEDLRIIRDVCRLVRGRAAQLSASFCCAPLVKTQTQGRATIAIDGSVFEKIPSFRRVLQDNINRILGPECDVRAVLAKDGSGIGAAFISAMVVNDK
# [2] = target: T2, TbHK1 (Trypanosoma brucei brucei, UniProt Q38C42); conditions: ref Sharlow et al., 2010b, cited from earlier work; for Inhibition of TbHK1: LOPAC screen, at 10 μM
# T2 sequence (Q38C42 1-471): T1 sequence (Q38C42 1-471)
# [3] = system: T. brucei parasites; conditions: ref Sharlow et al., cited from earlier work; for EC50: read-out: EC50 against parasites, unit inferred, 2010a,b; for Toxicity to parasites: 2010b
# [4] = system: HK from Plasmodium falciparum (PfHK); conditions: ref Harris et al., 2013, cited from earlier work
# [5] = system: parasite G6-P levels; conditions: after acute exposure; ref Sharlow et al., 2010a,b; cited from earlier work
# [6] = system: glucose-6-phosphate dehydrogenase (G6PDH); experiment: Counterscreen for inhibition of G6PDH; assay type: biochemical
# [7] = target: T3, TbHK1 C401A (Trypanosoma brucei brucei, UniProt Q38C42, C401A); experiment: Coupled hexokinase assay, TbHK1 Cys variant C401A; assay type: biochemical
# T3 sequence (Q38C42 1-471 C401A): T1 sequence (Q38C42 1-471) with C401A
# [8] = target: T4, TbHK1 C242A (Trypanosoma brucei brucei, UniProt Q38C42, C242A); experiment: Coupled hexokinase assay, TbHK1 Cys variant C242A; assay type: biochemical
# T4 sequence (Q38C42 1-471 C242A): T1 sequence (Q38C42 1-471) with C242A
# [9] = target: T5, TbHK1 C369A (Trypanosoma brucei brucei, UniProt Q38C42, C369A); experiment: Coupled hexokinase assay, TbHK1 Cys variant C369A; assay type: biochemical
# T5 sequence (Q38C42 1-471 C369A): T1 sequence (Q38C42 1-471) with C369A
# [10] = target: T2, TbHK1; experiment: Native gel analysis of TbHK1 oligomerization; conditions: data not shown
# [11] = cited from earlier work
# [12] = target: T6, TbHK1 C212S (Trypanosoma brucei brucei, UniProt Q38C42, C212S); experiment: Coupled hexokinase assay, TbHK1 Cys variant C212S; assay type: biochemical
# T6 sequence (Q38C42 1-471 C212S): T1 sequence (Q38C42 1-471) with C212S
# [13] = system: human indoleamine 2,3-dioxygenase (IDO); conditions: covalent modification of multiple Cys residues; ref Terentis et al., 2010; cited from earlier work
# [14] = target: T7, TbHK1 C445A (Trypanosoma brucei brucei, UniProt Q38C42, C445A); experiment: Coupled hexokinase assay, TbHK1 Cys variant C445A; assay type: biochemical
# T7 sequence (Q38C42 1-471 C445A): T1 sequence (Q38C42 1-471) with C445A
# [15] = target: T8, TbHK1 C402A (Trypanosoma brucei brucei, UniProt Q38C42, C402A); experiment: Coupled hexokinase assay, TbHK1 Cys variant C402A; assay type: biochemical
# T8 sequence (Q38C42 1-471 C402A): T1 sequence (Q38C42 1-471) with C402A
smiles,measurement,setting,value
"O[C@@H](CS)[C@@H](O)CS (racemic) [DTT, dithiothreitol]",Impact on enzyme activity,"[1]; DTT alone, 100 mM",little impact on enzyme activity
O=C(O)c1cc[c]([Hg][Cl])cc1 [4-chloromercuribenzoic acid],Inhibition of TbHK1,[2],84.7 ± 0.4%
"O=c1c2ccccc2sn1-c1ccccc1 [EbS, 2-phenyl-1,2-benzisothiazol-3(2H)-one]",EC50,[3],30 ± 67 nM
same,Toxicity to parasites,[3],toxic to parasites
same,Reversibility of PfHK inhibition by dilution,[4],completely relieved by dilution
same,Effect on parasite G6-P levels,[5],able to reduce parasite G6-P levels
"O=c1c2ccccc2[se]n1-c1ccccc1 [EbSe, 2-phenyl-1,2-benzisoselenazol-3(2H)-one]",Inhibition of G6PDH in counterscreen,[6],ineffective
same,Inhibition of TbHK1,[2],88.1 ± 0.6%
same,Mode of inhibition,[2]; with respect to ATP,mixed inhibitors
same,IC50,[7],290 ± 40 nM
same,EC50,[3],2900 ± 280 nM
same,Toxicity to parasites,[3],toxic to parasites
same,IC50,[8],550 ± 20 nM
same,IC50,[9],260 ± 20 nM
same,Impact on oligomerization of TbHK1,[10],neither EbSe nor TCEP impact oligomerization
same,Potency against PfHK relative to TbHK1,[4]; more potent on PfHK,~10 fold
same,Reversibility of PfHK inhibition by dilution,[4],completely relieved by dilution
same,Toxicity to humans,"[11]; human, in vivo",non-toxic
same,Outcome of patients suffering stroke,"[11]; ref Yamaguchi et al., 1998",improve the outcome
same,Sensitivity of variant to inhibition,[12],remained sensitive
same,IC50,"[12]; read-out: EbSe IC50, relative to WT",< 350 nM
same,Inhibition of human IDO,[13],inhibited
same,IC50,[1],350 ± 70 nM
same,Reversibility of inhibition by dilution,[1]; 200-fold dilution of enzyme and inhibitor after pre-incubation,not reversible; also recorded: irreversible
same,Rescue of enzyme activity by DTT added after inhibitor incubation,[1]; DTT 100 mM added after incubation with inhibitor,only modestly rescued enzyme activity
same,Relief of inhibition by excess Mg2+,"[1]; Mg2+ at ~15-fold higher concentrations than standard reaction, data not shown",did not relieve EbSe inhibition
same,Effect of pre-incubation of TbHK1 with DTT on inhibition,[1]; data not shown,prevented EbSe inhibition
same,Effect of pre-incubation with MPB on inhibition,[1]; enzyme pre-incubated with MPB,did not appreciably alter EbSe inhibition
same,IC50,[14],520 ± 50 nM
same,IC50,[15],430 ± 110 nM
same,Effect on parasite G6-P levels,[5],able to reduce parasite G6-P levels
"O=C(CCCCC1SCC2NC(=O)NC21)NCCCCC(NC(=O)CCN1C(=O)C=CC1=O)C(=O)O (stereo not drawn) [MPB, 3-(N-maleimidopropionyl)-biocytin]",Impact on enzyme activity,[1]; MPB at concentrations up to 50 μM,did not impact enzyme activity
"O=C(O)CCP(CCC(=O)O)CCC(=O)O [TCEP, tris (2-carboxyethyl)phosphine]",Impact on oligomerization of TbHK1,[10],neither EbSe nor TCEP impact oligomerization
